Among the test systems are Escherichia coli W3110; Candida albicans MDM8; Escherichia coli SBS 363; Micrococcus luteus A270; Escherichia coli 078; Escherichia coli 987P; Escherichia coli K88; Escherichia coli K99; Escherichia coli UB1005.
Holding throughout (experiment): ≥ marks a high value that may be exact or a test limit, other limits are often not marked, values filed in µg/mL are converted to µM
Experiment [1] concerns Candida albicans CGMCC 2.2086.
Experiment [2] has as its system Candida parapsilosis CGMCC 2.3989.
Experiment [3] deals with Candida tropicalis CGMCC 2.1975.
Experiment [4] relates to Lacticaseibacillus rhamnosus 7469.
The test system of experiment [5] is Lactiplantibacillus plantarum 8014.
In experiment [6] the test system is Staphylococcus aureus ATCC 25923.
Experiment [7] has as its system Staphylococcus aureus ATCC 29213.
Experiment [8] relates to Staphylococcus epidermidis ATCC 12228.
Experiment [9] deals with Klebsiella pneumoniae ATCC BAA-1705.
Experiment [10] deals with Bacillus megaterium ATCC 10778.
For experiment [11], the system named is Bacillus subtilis ATCC 6633.
The subject of experiment [12] is Candida tropicalis IOC 4560.
The test system of experiment [13] is Enterobacter cloacae beta-12.
The test system of experiment [14] is Pseudomonas aeruginosa ATCC 27853.
Experiment [15] has as its system Serratia marcescens ATCC 4112.
Experiment [16] has as its system Aspergillus flavus KCTC 6905.
For experiment [17], the system named is Candida albicans KCTC 7270.
The test system of experiment [18] is Candida krusei CCARM 14017.
The subject of experiment [19] is Candida parapsilosis CCARM 14016.
Experiment [20] deals with Candida tropicalis KCTC 7221.
The subject of experiment [21] is Fusarium verticillioides KCTC 6149.
Experiment [22] relates to Trichosporon beigelii KCTC 7707.
Experiment [23] deals with Escherichia coli ATCC 25922.
For experiment [24], the system named is Pseudomonas aeruginosa PAO1.
Experiment [25] has as its system Salmonella enterica subsp. enterica serovar Typhimurium ATCC 14028.
Experiment [26] deals with Salmonella enterica subsp. enterica serovar Typhimurium C77-31.

In brackets after ≈: the same amount, converted by molar mass. Several values for one entry are separate records, joined by “and”; a condition that tells them apart may be missing. Equal values may be shown once.

The term MIC denotes the lowest concentration found to suppress growth. Read a high MIC as weaker potency. Take `CC[C@H](C)[C@H](N)C(=O)N[C@@H](Cc1cnc[nH]1)C(=O)N[C@@H](Cc1cnc[nH]1)C(=O)N[C@H](C(=O)N[C@@H](Cc1cnc[nH]1)C(=O)N[C@@H](Cc1cnc[nH]1)C(=O)N[C@@H](Cc1cnc[nH]1)C(=O)N[C@H](C(=O)N[C@@H](Cc1cnc[nH]1)C(=O)N[C@@H](Cc1cnc[nH]1)C(=O)N[C@H](C(=O)N[C@@H](Cc1cnc[nH]1)C(=O)N[C@@H](Cc1cnc[nH]1)C(=O)N[C@@H](Cc1cnc[nH]1)C(=O)N[C@H](C(=O)N[C@@H](Cc1cnc[nH]1)C(=O)N[C@@H](Cc1cnc[nH]1)C(=O)N[C@H](C(=O)N[C@@H](Cc1cnc[nH]1)C(=O)N[C@@H](Cc1cnc[nH]1)C(=O)N[C@@H](Cc1cnc[nH]1)C(N)=O)[C@@H](C)CC)[C@@H](C)CC)[C@@H](C)CC)[C@@H](C)CC)[C@@H](C)CC` [IHHIHHHIHHIHHHIHHIHHH]: the MIC was 1 µM (≈ 2.75 µg/mL) in experiment [1]; 1 µM (≈ 2.75 µg/mL) in experiment [2]; 0.5 µM (≈ 1.38 µg/mL) in experiment [3]; at least 64 µM in experiment [4]; at least 64 µM in [5]; over 64 µM in experiment [6]. Moreover, the MIC in experiment [7] and in [8] was over 64 µM throughout.

Regarding `CC[C@H](C)[C@H](N)C(=O)N[C@@H](Cc1c[nH]c2ccccc12)C(=O)N[C@@H](Cc1c[nH]c2ccccc12)C(=O)N[C@@H](C)C(=O)N[C@@H](CCCCN)C(=O)N[C@@H](Cc1c[nH]c2ccccc12)C(=O)NCC(=O)N[C@@H](CC(C)C)C(=O)N[C@@H](CCCCN)C(=O)N[C@@H](CC(C)C)C(=O)N[C@@H](CC(C)C)C(=O)N[C@@H](CCCN=C(N)N)C(=O)N[C@@H](Cc1ccc(O)cc1)C(=O)N[C@@H](CCCN=C(N)N)C(=O)N[C@@H](CCCN=C(N)N)C(=O)N[C@@H](Cc1c[nH]c2ccccc12)C(=O)N[C@@H](Cc1ccc(O)cc1)C(=O)O` [IWWAKWGLKLLRYRRWY], the MIC amounted to 1 µM (≈ 2.39 µg/mL) in the experiment on Escherichia coli W3110 and 4 µM (≈ 9.58 µg/mL) in experiment [9].

Turning to `CC(C)C[C@H](NC(=O)[C@H](C)NC(=O)CNC(=O)[C@H](CC(C)C)NC(=O)[C@@H](N)Cc1ccccc1)C(=O)N[C@@H](Cc1c[nH]c2ccccc12)C(=O)N[C@@H](CC(N)=O)C(=O)N[C@H](C(=O)N[C@@H](Cc1ccccc1)C(=O)N[C@@H](CCCCN)C(=O)N[C@@H](CO)C(=O)N[C@H](C(=O)N[C@@H](Cc1ccccc1)C(N)=O)C(C)C)C(C)C` [FLGALWNVFKSVF], the minimal inhibitory concentration (MIC) was 1.6 µM (≈ 2.44 µg/mL) in experiment [10]; 0.8 µM (≈ 1.22 µg/mL) in [11]; 6.3 µM (≈ 9.62 µg/mL) with Candida albicans MDM8; 1.6 µM (≈ 2.44 µg/mL) in [12]; at least 50 µM in [13]; 3.1 µM (≈ 4.73 µg/mL) in the experiment with Escherichia coli SBS 363. Also, the MIC was 0.8 µM (≈ 1.22 µg/mL) with Micrococcus luteus A270, over 50 µM in [14], 0.4 µM (≈ 0.611 µg/mL) in experiment [15] and 0.8 µM (≈ 1.22 µg/mL) in experiment [7].

On to `CC(C)C[C@H](NC(=O)[C@H](C)NC(=O)CNC(=O)[C@H](CC(C)C)NC(=O)[C@@H](N)CCCCN)C(=O)N[C@@H](Cc1c[nH]c2ccccc12)C(=O)N[C@@H](CC(N)=O)C(=O)N[C@H](C(=O)N[C@@H](C)C(=O)N[C@@H](CCCCN)C(=O)N[C@@H](CO)C(=O)N[C@H](C(=O)N[C@@H](Cc1ccccc1)C(N)=O)C(C)C)C(C)C` [KLGALWNVAKSVF], for which the MIC in experiment [10] is 6.3 µM (≈ 9.02 µg/mL); in the experiment with Candida albicans MDM8 it was 3.1 µM (≈ 4.44 µg/mL); in [12] it was 6.3 µM (≈ 9.02 µg/mL); in [13], at least 50 µM; with Escherichia coli SBS 363, at least 50 µM; in the experiment on Micrococcus luteus A270, 6.3 µM (≈ 9.02 µg/mL). In addition, the minimum inhibitory concentration (MIC) is 6.3 µM (≈ 9.02 µg/mL) in experiment [15], 50 µM (≈ 71.6 µg/mL) in [7] and over 50 µM in experiment [8].

For `CC[C@H](C)[C@H](NC(=O)[C@H](C)NC(=O)[C@H](CCC(=O)O)NC(=O)[C@H](Cc1cnc[nH]1)NC(=O)[C@H](C)NC(=O)CNC(=O)[C@H](CCC(N)=O)NC(=O)[C@H](Cc1ccccc1)NC(=O)[C@@H](NC(=O)[C@H](CCCCN)NC(=O)[C@H](CCCCN)NC(=O)[C@H](CC(C)C)NC(=O)[C@H](C)NC(=O)[C@H](CC(N)=O)NC(=O)[C@H](CC(C)C)NC(=O)CN)C(C)C)C(=O)N[C@@H](CCCCN)C(=O)N[C@@H](CC(C)C)C(=O)N[C@@H](C)C(=O)N[C@@H](CC(N)=O)C(=O)N[C@@H](CC(N)=O)C(=O)N[C@@H](Cc1cnc[nH]1)C(=O)N[C@H](C(=O)N[C@@H](CCC(N)=O)C(N)=O)C(C)C` [GLNALKKVFQGAHEAIKLANNHVQ], the MIC in experiment [16] was at least 64 µM; in experiment [17] it was 8 µM and 16 µM; in [18], 8 µM (≈ 20.8 µg/mL); in [19], at least 64 µM; in experiment [20] it was 2 µM (≈ 5.2 µg/mL); in experiment [21], at least 64 µM. Besides, in experiment [22], the MIC is 6 µM and 2 µM.

Consider `CC[C@H](C)[C@H](N)C(=O)N[C@@H](Cc1cnc[nH]1)C(=O)N[C@@H](Cc1cnc[nH]1)C(=O)N[C@H](C(=O)N[C@@H](Cc1cnc[nH]1)C(=O)N[C@@H](Cc1cnc[nH]1)C(=O)N[C@@H](Cc1cnc[nH]1)C(N)=O)[C@@H](C)CC` [IHHIHHH], for which the MIC is at least 64 µM in [1]; at least 64 µM in experiment [2]; at least 64 µM in experiment [3]; at least 64 µM against Escherichia coli 078; at least 64 µM against Escherichia coli 987P; over 64 µM in experiment [23]. In addition, the MIC was at least 64 µM with Escherichia coli K88; at least 64 µM in the experiment with Escherichia coli K99; at least 64 µM in the experiment on Escherichia coli UB1005; at least 64 µM in [4]; at least 64 µM in experiment [5]; over 64 µM in experiment [14]. The MIC was over 64 µM in experiment [24]; over 64 µM in [25]; at least 64 µM in [26]; 64 µM (≈ 59.5 µg/mL) in experiment [6]; over 64 µM in [7]; over 64 µM in experiment [8].

As to `CC[C@H](C)[C@H](N)C(=O)N[C@@H](Cc1c[nH]c2ccccc12)C(=O)N[C@@H](Cc1c[nH]c2ccccc12)C(=O)N[C@@H](C)C(=O)N[C@@H](CCCCN)C(=O)N[C@@H](Cc1c[nH]c2ccccc12)C(=O)NCC(=O)N[C@@H](CC(C)C)C(=O)N[C@@H](CCCCN)C(=O)N[C@@H](Cc1c[nH]c2ccccc12)C(=O)N[C@@H](CC(C)C)C(=O)N[C@@H](CCCN=C(N)N)C(=O)N[C@@H](Cc1ccc(O)cc1)C(=O)N[C@@H](CCCN=C(N)N)C(=O)N[C@@H](CCCN=C(N)N)C(=O)N[C@H](C(=O)N[C@@H](Cc1ccc(O)cc1)C(=O)O)[C@@H](C)CC` [IWWAKWGLKWLRYRRIY], the MIC was 2 µM (≈ 4.79 µg/mL) against Escherichia coli W3110 and 16 µM (≈ 38.3 µg/mL) in [9].

Source of the values: DBAASP.
